# Experimental data from PMC4256409, “Role of Phenylalanine and Valine^10 Residues in the Antimicrobial Activity and Cytotoxicity of Piscidin-1” (PLoS ONE, 2014).
# Where no end group is shown, it is not given here.
# Tests used:
# MDRST CCARM 8009 = type: cell-based, multidrug-resistant S. typhimurium; conditions: broth microdilution, 37°C, 16 h, three independent experiments in triplicate, SD 14.0%
# MRSA CCARM 3114 = type: cell-based, Methicillin-resistant S. aureus; conditions: CCARM 3114, 16 h
# MRSA CCARM3089 = type: cell-based, Methicillin-resistant S. aureus; conditions: CCARM3089, 16 h
# B. subtilis KCTC1022 = type: cell-based, Bacillus subtilis; conditions: KCTC1022, 16 h
# [1] = test system: Drug-resistant bacterial strains; conditions: average over the 18 drug-resistant bacterial strains of Table 3
# Excerpt: Escherichia coli KCTC 1682, E. coli KCTC 2593, E. coli KCTC 2571, Salmonella typhimurium KCTC 1926, Pseudomonas aeruginosa KCTC 1637, P. aeruginosa KCTC 2004, P. aeruginosa KCTC 2513, Bacillus subtilis KCTC 3068, B. subtilis KCTC 1021, B. subtilis KCTC 1022, Staphylococcus epidermidis KCTC 1917, Staphylococcus aureus KCTC 1621, S. aureus KCTC 1916, and S. aureus KCTC 3881 were purchased from the Korean Collection for Type Cultures, Korea Research Institute of Bioscience & Biotechnology (Taejon, Korea). Methicillin-resistant S. aureus (MRSA) (CCARM 3089, CCARM 3090, CCARM 3108, CCARM 3114, and CCARM 3126), multidrug-resistant E. coli (MDREC) (CCARM 1229 and CCARM 1238), multidrug-resistant S. typhimurium (MDRST) (CCARM 8003, CCARM 8007, and CCARM 8009), multidrug-resistant Acinetobacter baumanii (MDRAB) (CCARM 12005, CCARM 12035, CCARM 12036, CCARM 12037), and multidrug-resistant P. aeruginosa (MDRPA) (CCARM 2002, CCARM 2003, CCARM 2095, and CCARM 2163) were obtained from the Culture Collection of Antibiotic-Resistant Microbes (CCARM) at Seoul Women’s University in Korea. The antimicrobial activities of the peptides against selected organisms, including three Gram-positive, three Gram-negative, and five antibiotic-resistant bacteria, were determined using a broth microdilution assay. Briefly, single colonies of bacteria and fungi were inoculated into Luria-Bertani (LB) medium and cultured overnight at 37°C. An aliquot of the culture was transferred to 10 mL of fresh LB and incubated for an additional 3–5 h at 37°C until it reached the mid-logarithmic phase. Two-fold serial dilutions of the peptides in 1% peptone were prepared. The serial dilutions (100 µL) were added to 100 µL of cells (2×10^6 colony-forming units (CFU)/mL) in 96-well microtiter plates and incubated at 37°C for 16 h. […] MIC values were calculated as the average of triplicate measurements from three independent assays.
# P. aeruginosa KCTC2513 = type: cell-based, Pseudomonas aeruginosa; conditions: KCTC2513, 16 h
# S. typhimurium KCTC1926 = type: cell-based, Salmonella typhimurium; conditions: KCTC1926, 16 h
# MRSA CCARM 3108 = type: cell-based, Methicillin-resistant S. aureus; conditions: CCARM 3108, 16 h
# MDRAB CCARM 12005 = type: cell-based, multidrug-resistant Acinetobacter baumanii; conditions: broth microdilution, 37°C, 16 h, three independent experiments in triplicate, SD 14.0%
# MDRST CCARM 8007 = type: cell-based, multidrug-resistant S. typhimurium; conditions: broth microdilution, 37°C, 16 h, three independent experiments in triplicate, SD 14.0%
# S. aureus KCTC1621 = type: cell-based, Staphylococcus aureus; conditions: KCTC1621, 16 h
# B. subtilis KCTC3068 = type: cell-based, Bacillus subtilis; conditions: KCTC3068, 16 h
# MRSA CCARM 3090 = type: cell-based, Methicillin-resistant S. aureus; conditions: CCARM 3090, 16 h
# MDRPA CCARM 2003 = type: cell-based, multidrug-resistant P. aeruginosa; conditions: broth microdilution, 37°C, 16 h, three independent experiments in triplicate, SD 14.0%
# MRSA CCARM 3126 = type: cell-based, Methicillin-resistant S. aureus; conditions: CCARM 3126, 16 h
# B. subtilis KCTC1021 = type: cell-based, Bacillus subtilis; conditions: KCTC1021, 16 h
# E. coli KCTC1682 = type: cell-based, Escherichia coli; conditions: KCTC1682, 16 h
# MDRAB CCARM 12035 = type: cell-based, multidrug-resistant Acinetobacter baumanii; conditions: broth microdilution, 37°C, 16 h, three independent experiments in triplicate, SD 14.0%
# MDRPA CCARM 2002 = type: cell-based, multidrug-resistant P. aeruginosa; conditions: broth microdilution, 37°C, 16 h, three independent experiments in triplicate, SD 14.0%
# [2] = test system: Standard bacterial strains; type: cell-based; conditions: average over the 14 standard bacterial strains of Table 2
# P. aeruginosa KCTC2004 = type: cell-based, Pseudomonas aeruginosa; conditions: KCTC2004, 16 h
# MDREC CCARM 1229 = type: cell-based, multidrug-resistant E. coli; conditions: broth microdilution, 37°C, 16 h, three independent experiments in triplicate, SD 14.0%
# S. aureus KCTC3881 = type: cell-based, Staphylococcus aureus; conditions: KCTC3881, 16 h
# MDRAB CCARM 12037 = type: cell-based, multidrug-resistant Acinetobacter baumanii; conditions: broth microdilution, 37°C, 16 h, three independent experiments in triplicate, SD 14.0%
# S. epidermidis KCTC1917 = type: cell-based, Staphylococcus epidermidis; conditions: KCTC1917, 16 h
# E.coli KCTC2571 = type: cell-based, Escherichia coli; conditions: KCTC2571, 16 h
# E. coli KCTC2593 = type: cell-based, Escherichia coli; conditions: KCTC2593, 16 h
# MDRPA CCARM 2163 = type: cell-based, multidrug-resistant P. aeruginosa; conditions: broth microdilution, 37°C, 16 h, three independent experiments in triplicate, SD 14.0%
# S. aureus KCTC1916 = type: cell-based, Staphylococcus aureus; conditions: KCTC1916, 16 h
# MDRST CCARM 8003 = type: cell-based, multidrug-resistant S. typhimurium; conditions: broth microdilution, 37°C, 16 h, three independent experiments in triplicate, SD 14.0%
# MDRAB CCARM 12036 = type: cell-based, multidrug-resistant Acinetobacter baumanii; conditions: broth microdilution, 37°C, 16 h, three independent experiments in triplicate, SD 14.0%
# MDREC CCARM 1238 = type: cell-based, multidrug-resistant E. coli; conditions: broth microdilution, 37°C, 16 h, three independent experiments in triplicate, SD 14.0%
# MDRPA CCARM 2095 = type: cell-based, multidrug-resistant P. aeruginosa; conditions: broth microdilution, 37°C, 16 h, three independent experiments in triplicate, SD 14.0%
# P. aeruginosa KCTC1637 = type: cell-based, Pseudomonas aeruginosa; conditions: KCTC1637, 16 h
Sequence,MIC (MDRST CCARM 8009) [µM],MIC (MRSA CCARM 3114) [µM],MIC (MRSA CCARM3089) [µM],MIC (B. subtilis KCTC1022) [µM],Average MIC [1] [µM],MIC (P. aeruginosa KCTC2513) [µM],MIC (S. typhimurium KCTC1926) [µM],MIC (MRSA CCARM 3108) [µM],MIC (MDRAB CCARM 12005) [µM],MIC (MDRST CCARM 8007) [µM],MIC (S. aureus KCTC1621) [µM],MIC (B. subtilis KCTC3068) [µM],MIC (MRSA CCARM 3090) [µM],MIC (MDRPA CCARM 2003) [µM],MIC (MRSA CCARM 3126) [µM],MIC (B. subtilis KCTC1021) [µM],MIC (E. coli KCTC1682) [µM],MIC (MDRAB CCARM 12035) [µM],MIC (MDRPA CCARM 2002) [µM],Average MIC [2] [µM],other results
AFHHIFRGIVHVGKTIHRLVTG [Pis-F1A],8.0,8.0,8.0,1.0,5.3,8.0,8.0,8.0,2.0,8.0,1.0,4.0,8.0,2.0,8.0,4.0,2.0,2.0,2.0,3.2,MIC (P. aeruginosa KCTC2004): 4.0 µM; MIC (MDREC CCARM 1229): 8.0 µM; MIC (S. aureus KCTC3881): 2.0 µM; MIC (MDRAB CCARM 12037): 2.0 µM; MIC (S. epidermidis KCTC1917): 2.0 µM; MIC (E.coli KCTC2571): 2.0 µM; MIC (E. coli KCTC2593): 2.0 µM; MIC (MDRPA CCARM 2163): 2.0 µM; MIC (S. aureus KCTC1916): 1.0 µM; MIC (MDRST CCARM 8003): 8.0 µM; MIC (MDRAB CCARM 12036): 2.0 µM; MIC (MDREC CCARM 1238): 8.0 µM; MIC (MDRPA CCARM 2095): 2.0 µM; MIC (P. aeruginosa KCTC1637): 4.0 µM
FAHHIFRGIVHVGKTIHRLVTG [Pis-F2A],16,16,16,1.0,12,8.0,16,16,4.0,16,4.0,4.0,16,4.0,16,8.0,2.0,4.0,4.0,4.6,MIC (P. aeruginosa KCTC2004): 8.0 µM; MIC (MDREC CCARM 1229): 16 µM; MIC (S. aureus KCTC3881): 2.0 µM; MIC (MDRAB CCARM 12037): 4.0 µM; MIC (S. epidermidis KCTC1917): 2.0 µM; MIC (E.coli KCTC2571): 2.0 µM; MIC (E. coli KCTC2593): 2.0 µM; MIC (MDRPA CCARM 2163): 4.0 µM; MIC (S. aureus KCTC1916): 1.0 µM; MIC (MDRST CCARM 8003): 32 µM; MIC (MDRAB CCARM 12036): 4.0 µM; MIC (MDREC CCARM 1238): 16 µM; MIC (MDRPA CCARM 2095): 4.0 µM; MIC (P. aeruginosa KCTC1637): 4.0 µM
FFHHIARGIVHVGKTIHRLVTG [Pis-F6A],16,16,32,2.0,15,16,16,16,4.0,16,4.0,4.0,32,4.0,16,16,2.0,4.0,4.0,6.3,MIC (P. aeruginosa KCTC2004): 8.0 µM; MIC (MDREC CCARM 1229): 32 µM; MIC (S. aureus KCTC3881): 4.0 µM; MIC (MDRAB CCARM 12037): 4.0 µM; MIC (S. epidermidis KCTC1917): 4.0 µM; MIC (E.coli KCTC2571): 4.0 µM; MIC (E. coli KCTC2593): 2.0 µM; MIC (MDRPA CCARM 2163): 4.0 µM; MIC (S. aureus KCTC1916): 2.0 µM; MIC (MDRST CCARM 8003): 32 µM; MIC (MDRAB CCARM 12036): 4.0 µM; MIC (MDREC CCARM 1238): 32 µM; MIC (MDRPA CCARM 2095): 4.0 µM; MIC (P. aeruginosa KCTC1637): 4.0 µM
